Compound: CN(C)C/C=C/C(=O)Nc1ccc(C(=O)Nc2cccc(Nc3ncc(Cl)c(-c4c[nH]c5ccccc45)n3)c2)cc1 [THZ1]
Test: increase in dead-cell fraction, 72 h; higher = more death;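 further: breast cancer cell lines in 384-well plates, stained with Hoechst plus LIVE/DEAD far red dye and imaged, cells above an LDR intensity threshold counted dead, Hoechst-negative corpses included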
Conditions: 0.0001 µM

| Cell Line | increase in dead-cell fraction |
| --- | --- |
| MDAMB453 | 0.0006 |
| MDAMB468 | -0.0001 |
| MGH312 | -0.0154 |
| PDX1258 | -0.0269 |
| PDX1328 | -0.0047 |

Same assay, conditions: 0.0003162 µM

| Cell Line | increase in dead-cell fraction |
| --- | --- |
| MDAMB453 | -0.0024 |
| MDAMB468 | -0.0124 |
| MGH312 | 0 |
| PDX1258 | 0.0089 |
| PDX1328 | -0.0031 |

Same assay, conditions: 0.001 µM

| Cell Line | increase in dead-cell fraction |
| --- | --- |
| MDAMB453 | -0.0042 |
| MDAMB468 | -0.0067 |
| MGH312 | -0.0061 |
| PDX1258 | -0.01 |
| PDX1328 | -0.0014 |

Same assay, conditions: 0.003162 µM

| Cell Line | increase in dead-cell fraction |
| --- | --- |
| MDAMB453 | 0.0021 |
| MDAMB468 | -0.0067 |
| MGH312 | 0.0002 |
| PDX1258 | -0.0015 |
| PDX1328 | -0.0053 |

Same assay, conditions: 0.01 µM

| Cell Line | increase in dead-cell fraction |
| --- | --- |
| MDAMB453 | 0.0161 |
| MDAMB468 | 0.0039 |
| MGH312 | 0.0559 |
| PDX1258 | 0.0153 |
| PDX1328 | 0.0031 |

Same assay, conditions: 0.03162 µM

| Cell Line | increase in dead-cell fraction |
| --- | --- |
| MDAMB453 | 0.0525 |
| MDAMB468 | 0.0402 |
| MGH312 | 0.541 |
| PDX1258 | 0.188 |
| PDX1328 | 0.0436 |

Same assay, conditions: 0.1 µM

| Cell Line | increase in dead-cell fraction |
| --- | --- |
| MDAMB453 | 0.133 |
| MDAMB468 | 0.165 |
| MGH312 | 0.684 |
| PDX1258 | 0.237 |
| PDX1328 | 0.123 |

Same assay, conditions: 0.3162 µM

| Cell Line | increase in dead-cell fraction |
| --- | --- |
| MDAMB453 | 0.101 |
| MDAMB468 | 0.149 |
| MGH312 | 0.628 |
| PDX1258 | 0.304 |
| PDX1328 | 0.225 |

Same assay, conditions: 1 µM

| Cell Line | increase in dead-cell fraction |
| --- | --- |
| MDAMB453 | 0.122 |
| MDAMB468 | 0.313 |
| MGH312 | 0.699 |
| PDX1258 | 0.398 |
| PDX1328 | 0.432 |

Compound: C=CC(=O)Nc1ccc(C(=O)Nc2[nH]nc3c2CN(C(=O)N[C@H](CN(C)C)c2ccccc2)C3(C)C)cc1 [YKL-5-124]
Test: as above
Conditions: 0.001 µM

| Cell Line | increase in dead-cell fraction |
| --- | --- |
| MDAMB453 | 0.007 |
| MDAMB468 | 0.0818 |
| MGH312 | 0.0188 |
| PDX1258 | 0.019 |
| PDX1328 | 0.0057 |

Same assay, conditions: 0.003162 µM

| Cell Line | increase in dead-cell fraction |
| --- | --- |
| MDAMB453 | 0.013 |
| MDAMB468 | 0.116 |
| MGH312 | 0.0332 |
| PDX1258 | 0.0602 |
| PDX1328 | 0.0011 |

Same assay, conditions: 0.01 µM

| Cell Line | increase in dead-cell fraction |
| --- | --- |
| MDAMB453 | 0.0243 |
| MDAMB468 | 0.0906 |
| MGH312 | 0.0482 |
| PDX1258 | 0.0734 |
| PDX1328 | 0.0128 |

Same assay, conditions: 0.03162 µM

| Cell Line | increase in dead-cell fraction |
| --- | --- |
| MDAMB453 | 0.0344 |
| MDAMB468 | 0.163 |
| MGH312 | 0.0591 |
| PDX1258 | 0.107 |
| PDX1328 | 0.0082 |

Same assay, conditions: 0.1 µM

| Cell Line | increase in dead-cell fraction |
| --- | --- |
| MDAMB453 | 0.0489 |
| MDAMB468 | 0.171 |
| MGH312 | 0.0669 |
| PDX1258 | 0.033 |
| PDX1328 | 0.0045 |

Same assay, conditions: 0.3162 µM

| Cell Line | increase in dead-cell fraction |
| --- | --- |
| MDAMB453 | 0.033 |
| MDAMB468 | 0.183 |
| MGH312 | 0.0808 |
| PDX1258 | 0.165 |
| PDX1328 | 0.0085 |

Same assay, conditions: 1 µM

| Cell Line | increase in dead-cell fraction |
| --- | --- |
| MDAMB453 | 0.0346 |
| MDAMB468 | 0.231 |
| MGH312 | 0.0821 |
| PDX1258 | 0.153 |
| PDX1328 | 0.0121 |

Same assay, conditions: 3.162 µM

| Cell Line | increase in dead-cell fraction |
| --- | --- |
| MDAMB453 | 0.0296 |
| MDAMB468 | 0.213 |
| MGH312 | 0.15 |
| PDX1258 | 0.153 |
| PDX1328 | 0.0229 |

Same assay, conditions: 10 µM

| Cell Line | increase in dead-cell fraction |
| --- | --- |
| MDAMB453 | 0.275 |
| MDAMB468 | 0.386 |
| MGH312 | 0.61 |
| PDX1258 | 0.298 |
| PDX1328 | 0.0663 |

Compound: CN1CC[C@H](c2c(O)cc(O)c3c(=O)cc(-c4ccccc4Cl)oc23)[C@H](O)C1 [Flavopiridol]
Test: as above
Conditions: 0.0001 µM

| Cell Line | increase in dead-cell fraction |
| --- | --- |
| MDAMB453 | -0.0017 |
| MDAMB468 | -0.0044 |
| MGH312 | -0.004 |
| PDX1258 | 0.0131 |
| PDX1328 | 0.003 |

Same assay, conditions: 0.0003162 µM

| Cell Line | increase in dead-cell fraction |
| --- | --- |
| MDAMB453 | -0.0022 |
| MDAMB468 | 0.0084 |
| MGH312 | -0.0016 |
| PDX1258 | -0.0092 |
| PDX1328 | -0.0035 |

Same assay, conditions: 0.001 µM

| Cell Line | increase in dead-cell fraction |
| --- | --- |
| MDAMB453 | -0.0038 |
| MDAMB468 | -0.004 |
| MGH312 | -0.0079 |
| PDX1258 | -0.0132 |
| PDX1328 | -0.0003 |

Same assay, conditions: 0.003162 µM

| Cell Line | increase in dead-cell fraction |
| --- | --- |
| MDAMB453 | -0.0016 |
| MDAMB468 | -0.0097 |
| MGH312 | 0.013 |
| PDX1258 | -0.0012 |
| PDX1328 | -0.0025 |

Same assay, conditions: 0.01 µM

| Cell Line | increase in dead-cell fraction |
| --- | --- |
| MDAMB453 | -0.0001 |
| MDAMB468 | 0.0094 |
| MGH312 | 0.0083 |
| PDX1258 | 0.0042 |
| PDX1328 | -0.0027 |

Same assay, conditions: 0.03162 µM

| Cell Line | increase in dead-cell fraction |
| --- | --- |
| MDAMB453 | -0.0034 |
| MDAMB468 | 0.002 |
| MGH312 | -0.0027 |
| PDX1258 | -0.0156 |
| PDX1328 | -0.0044 |

Same assay, conditions: 0.1 µM

| Cell Line | increase in dead-cell fraction |
| --- | --- |
| MDAMB453 | 0.0018 |
| MDAMB468 | 0.0269 |
| MGH312 | 0.0209 |
| PDX1258 | 0.0246 |
| PDX1328 | -0.0014 |

Same assay, conditions: 0.3162 µM

| Cell Line | increase in dead-cell fraction |
| --- | --- |
| MDAMB453 | 0.0317 |
| MDAMB468 | 0.0941 |
| MGH312 | 0.249 |
| PDX1258 | 0.0926 |
| PDX1328 | 0.0342 |

Same assay, conditions: 1 µM

| Cell Line | increase in dead-cell fraction |
| --- | --- |
| MDAMB453 | 0.168 |
| MDAMB468 | 0.274 |
| MGH312 | 0.705 |
| PDX1258 | 0.288 |
| PDX1328 | 0.348 |
